{"source": "ChEMBL document CHEMBL5550160", "about": "“Leveraging a rationally designed veliparib-based anilide eliciting anti-leukemic effects for the design of pH-responsive polymer nanoformulation” (Eur J Med Chem, 2024)", "key": {"[1]": {"biological_target": "T1, Histone deacetylase 7 (Homo sapiens) (UniProt Q8WUI4)", "T1 sequence (whole entry)": "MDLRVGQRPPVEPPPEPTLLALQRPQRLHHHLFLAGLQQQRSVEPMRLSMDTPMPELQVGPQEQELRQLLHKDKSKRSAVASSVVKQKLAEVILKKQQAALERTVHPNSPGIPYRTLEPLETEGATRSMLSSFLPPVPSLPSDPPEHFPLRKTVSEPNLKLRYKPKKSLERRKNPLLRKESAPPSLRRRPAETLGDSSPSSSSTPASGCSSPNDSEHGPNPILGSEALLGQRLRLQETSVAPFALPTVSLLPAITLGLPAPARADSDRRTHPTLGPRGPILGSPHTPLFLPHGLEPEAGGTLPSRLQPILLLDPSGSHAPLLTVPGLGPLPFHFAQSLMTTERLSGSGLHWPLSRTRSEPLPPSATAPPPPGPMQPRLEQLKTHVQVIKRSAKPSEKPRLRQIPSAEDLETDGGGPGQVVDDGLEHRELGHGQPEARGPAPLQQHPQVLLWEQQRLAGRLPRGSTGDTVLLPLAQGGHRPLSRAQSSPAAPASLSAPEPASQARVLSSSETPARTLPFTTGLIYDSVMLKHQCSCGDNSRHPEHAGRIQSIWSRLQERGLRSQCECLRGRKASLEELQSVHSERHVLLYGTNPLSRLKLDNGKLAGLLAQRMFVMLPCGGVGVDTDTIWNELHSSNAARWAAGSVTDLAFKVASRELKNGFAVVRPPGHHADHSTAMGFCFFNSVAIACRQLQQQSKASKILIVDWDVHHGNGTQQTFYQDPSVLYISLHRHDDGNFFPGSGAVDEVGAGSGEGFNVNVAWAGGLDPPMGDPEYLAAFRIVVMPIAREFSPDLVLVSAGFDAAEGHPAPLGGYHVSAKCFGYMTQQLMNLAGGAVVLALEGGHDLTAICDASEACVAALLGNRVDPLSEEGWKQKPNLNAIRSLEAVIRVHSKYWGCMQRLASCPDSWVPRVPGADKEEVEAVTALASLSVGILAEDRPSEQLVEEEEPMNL", "test": "Inhibition of HDAC7 (unknown origin) assessed as residual activity at 1.37 x 10^-8M (reference value: 102.66%)", "settings": "dose 1.37 10^-8M"}, "[2]": {"system": "HL-60", "test": "Downregulation of HDAC3 protein expression in human HL-60 cells at 0.5 to 1 times IC50 by Western blot analysis", "format": "functional, cell-based"}, "[3]": {"biological_target": "Histone deacetylase 9 (Homo sapiens) (UniProt Q9UKV0)", "sequence (Q9UKV0 whole entry)": "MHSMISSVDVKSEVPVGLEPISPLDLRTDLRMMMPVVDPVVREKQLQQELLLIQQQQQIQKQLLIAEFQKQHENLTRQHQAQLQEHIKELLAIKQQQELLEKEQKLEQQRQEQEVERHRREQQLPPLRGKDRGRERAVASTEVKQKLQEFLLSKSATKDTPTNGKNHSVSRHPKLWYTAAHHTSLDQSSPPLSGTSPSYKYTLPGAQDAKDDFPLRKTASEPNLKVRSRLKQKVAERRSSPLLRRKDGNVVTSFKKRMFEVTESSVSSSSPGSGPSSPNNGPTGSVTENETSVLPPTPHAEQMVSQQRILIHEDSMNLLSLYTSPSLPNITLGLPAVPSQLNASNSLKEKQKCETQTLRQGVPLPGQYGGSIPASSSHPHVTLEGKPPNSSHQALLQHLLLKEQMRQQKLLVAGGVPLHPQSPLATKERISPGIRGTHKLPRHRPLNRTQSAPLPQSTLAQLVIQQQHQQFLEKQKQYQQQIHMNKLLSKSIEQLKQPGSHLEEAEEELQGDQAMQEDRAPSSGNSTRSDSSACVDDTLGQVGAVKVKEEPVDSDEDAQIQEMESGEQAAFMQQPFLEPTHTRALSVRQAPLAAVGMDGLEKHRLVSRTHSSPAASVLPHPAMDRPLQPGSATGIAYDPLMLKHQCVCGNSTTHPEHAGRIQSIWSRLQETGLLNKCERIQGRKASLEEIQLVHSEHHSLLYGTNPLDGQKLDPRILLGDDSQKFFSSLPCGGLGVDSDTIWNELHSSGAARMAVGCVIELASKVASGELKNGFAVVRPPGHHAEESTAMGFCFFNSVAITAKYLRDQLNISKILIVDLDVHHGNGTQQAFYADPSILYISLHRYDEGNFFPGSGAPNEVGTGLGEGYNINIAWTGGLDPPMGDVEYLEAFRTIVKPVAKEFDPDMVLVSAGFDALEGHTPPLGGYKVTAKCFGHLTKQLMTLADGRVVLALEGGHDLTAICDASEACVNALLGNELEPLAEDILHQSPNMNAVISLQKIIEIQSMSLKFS", "test": "Inhibition of HDAC9 (unknown origin) assessed as residual activity at 1.37 x 10^-8M (reference value: 97.55%)", "settings": "dose 1.37 10^-8M"}, "[4]": {"biological_target": "T2, Protein deacetylase HDAC6 (Homo sapiens) (UniProt Q9UBN7)", "T2 sequence (whole entry)": "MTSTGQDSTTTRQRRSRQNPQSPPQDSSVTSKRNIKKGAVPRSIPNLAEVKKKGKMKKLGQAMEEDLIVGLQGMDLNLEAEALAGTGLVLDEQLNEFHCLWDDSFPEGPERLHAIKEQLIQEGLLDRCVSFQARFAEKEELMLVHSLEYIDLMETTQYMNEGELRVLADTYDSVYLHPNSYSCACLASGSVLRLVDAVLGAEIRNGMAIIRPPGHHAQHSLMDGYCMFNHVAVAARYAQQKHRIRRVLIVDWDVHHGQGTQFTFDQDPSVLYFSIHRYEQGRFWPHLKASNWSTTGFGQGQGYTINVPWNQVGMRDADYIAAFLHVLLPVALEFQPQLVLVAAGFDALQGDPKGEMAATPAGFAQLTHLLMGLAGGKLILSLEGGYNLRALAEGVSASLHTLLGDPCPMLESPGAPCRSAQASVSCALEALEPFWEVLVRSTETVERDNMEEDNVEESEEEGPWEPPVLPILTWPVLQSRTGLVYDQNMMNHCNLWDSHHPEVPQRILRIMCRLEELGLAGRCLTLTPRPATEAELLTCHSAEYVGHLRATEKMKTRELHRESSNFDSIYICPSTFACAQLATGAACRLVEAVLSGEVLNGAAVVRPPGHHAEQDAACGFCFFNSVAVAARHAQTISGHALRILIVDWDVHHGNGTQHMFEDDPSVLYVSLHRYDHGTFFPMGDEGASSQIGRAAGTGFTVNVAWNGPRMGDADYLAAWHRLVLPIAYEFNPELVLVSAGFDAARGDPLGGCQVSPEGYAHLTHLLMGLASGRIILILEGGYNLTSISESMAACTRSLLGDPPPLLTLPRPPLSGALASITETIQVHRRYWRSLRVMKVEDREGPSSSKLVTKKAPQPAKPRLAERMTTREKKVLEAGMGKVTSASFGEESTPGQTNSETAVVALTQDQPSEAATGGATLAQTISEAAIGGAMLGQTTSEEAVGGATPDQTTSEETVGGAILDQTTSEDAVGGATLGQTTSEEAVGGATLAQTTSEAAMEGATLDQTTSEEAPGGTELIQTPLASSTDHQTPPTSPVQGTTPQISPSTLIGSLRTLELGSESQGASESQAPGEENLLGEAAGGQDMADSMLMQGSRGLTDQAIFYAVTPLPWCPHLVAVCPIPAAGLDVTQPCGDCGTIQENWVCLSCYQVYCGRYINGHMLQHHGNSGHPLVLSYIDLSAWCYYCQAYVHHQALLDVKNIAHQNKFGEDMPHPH", "test": "Inhibition of HDAC6 (unknown origin) using p53 residues 379 to 382 [RHKK(Ac)] as fluorogenic substrate assessed as residual activity at 1.37 x 10^-8M (reference value: 101.06%)", "settings": "dose 1.37 10^-8M"}, "[5]": {"biological_target": "Histone deacetylase 9 (Homo sapiens) (UniProt Q9UKV0)", "test": "Inhibition of HDAC9 (unknown origin) assessed as residual activity at 5.08 x 10^-10M (reference value: 97.55%)", "settings": "dose 5.08 10^-10M"}, "[6]": {"biological_target": "Histone deacetylase 5 (Homo sapiens) (UniProt Q9UQL6)", "sequence (Q9UQL6 whole entry)": "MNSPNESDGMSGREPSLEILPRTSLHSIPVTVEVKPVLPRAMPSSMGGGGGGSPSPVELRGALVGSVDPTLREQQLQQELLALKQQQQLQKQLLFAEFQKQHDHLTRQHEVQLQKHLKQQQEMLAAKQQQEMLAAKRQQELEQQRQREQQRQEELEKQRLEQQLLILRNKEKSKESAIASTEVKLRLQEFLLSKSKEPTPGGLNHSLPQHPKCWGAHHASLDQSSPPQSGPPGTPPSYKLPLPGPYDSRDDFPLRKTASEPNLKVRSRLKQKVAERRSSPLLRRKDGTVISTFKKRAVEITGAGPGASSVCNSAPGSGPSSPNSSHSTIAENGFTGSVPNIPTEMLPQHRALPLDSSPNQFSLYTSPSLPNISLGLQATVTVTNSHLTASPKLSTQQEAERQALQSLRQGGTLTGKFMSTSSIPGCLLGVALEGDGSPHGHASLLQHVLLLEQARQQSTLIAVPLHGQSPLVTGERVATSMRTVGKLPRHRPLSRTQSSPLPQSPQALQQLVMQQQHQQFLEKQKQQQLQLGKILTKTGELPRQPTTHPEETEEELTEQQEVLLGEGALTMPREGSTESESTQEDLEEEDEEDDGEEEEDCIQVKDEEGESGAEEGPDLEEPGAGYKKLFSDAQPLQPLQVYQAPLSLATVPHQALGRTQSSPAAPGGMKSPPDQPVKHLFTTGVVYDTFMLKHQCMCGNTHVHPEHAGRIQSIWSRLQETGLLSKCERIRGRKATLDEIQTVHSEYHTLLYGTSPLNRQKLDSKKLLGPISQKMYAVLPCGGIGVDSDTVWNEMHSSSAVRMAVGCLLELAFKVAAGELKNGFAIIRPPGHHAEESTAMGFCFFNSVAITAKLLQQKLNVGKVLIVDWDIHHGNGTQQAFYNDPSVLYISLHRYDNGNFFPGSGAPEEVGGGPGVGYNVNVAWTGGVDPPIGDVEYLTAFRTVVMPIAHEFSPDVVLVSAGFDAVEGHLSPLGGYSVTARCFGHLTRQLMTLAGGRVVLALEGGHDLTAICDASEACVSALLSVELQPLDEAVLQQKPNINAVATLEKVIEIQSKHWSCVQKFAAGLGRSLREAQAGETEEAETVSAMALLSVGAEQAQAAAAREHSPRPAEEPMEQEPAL", "test": "Inhibition of HDAC5 (unknown origin) assessed as residual activity at 1.37 x 10^-8M (reference value: 100%)", "settings": "dose 1.37 10^-8M"}, "[7]": {"biological_target": "T3, Histone deacetylase 8 (Homo sapiens) (UniProt Q9BY41)", "T3 sequence (whole entry)": "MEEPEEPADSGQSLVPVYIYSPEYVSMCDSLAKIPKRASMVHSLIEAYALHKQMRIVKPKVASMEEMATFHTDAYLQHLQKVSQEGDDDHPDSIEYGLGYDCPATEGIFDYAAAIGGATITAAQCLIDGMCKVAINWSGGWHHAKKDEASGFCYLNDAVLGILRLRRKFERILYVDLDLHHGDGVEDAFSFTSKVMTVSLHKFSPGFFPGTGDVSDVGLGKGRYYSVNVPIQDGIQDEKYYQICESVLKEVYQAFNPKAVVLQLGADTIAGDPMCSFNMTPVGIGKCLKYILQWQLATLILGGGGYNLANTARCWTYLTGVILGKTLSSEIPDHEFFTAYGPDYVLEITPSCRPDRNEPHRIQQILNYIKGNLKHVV", "test": "Inhibition of HDAC8 (unknown origin) assessed as residual activity at 3.33 x 10^-6M (reference value: 100%)", "settings": "dose 3.33 10^-6M"}}, "note": "Activity calls are given as the source filed them. No cut-off for these calls is given here.", "data": [{"compound": "NC(=O)c1cccc2[nH]c(-c3ccc(NCc4ccc(C(=O)Nc5ccccc5N)cc4)cc3)nc12", "values": [{"measurement": "Activity", "setting": "[1]", "value": 103, "unit": "%"}, {"measurement": "Activity", "setting": "[2]", "value": "Active"}, {"measurement": "Activity", "setting": "[3]", "value": 84.9, "unit": "%"}, {"measurement": "Activity", "setting": "[4]", "value": 103, "unit": "%"}, {"measurement": "Activity", "setting": "[5]", "value": 93.7, "unit": "%"}, {"measurement": "Activity", "setting": "[6]", "value": 84, "unit": "%"}, {"measurement": "Activity", "setting": "[7]", "value": 96.9, "unit": "%"}]}]}
